Results published in PubChem BioAssay AID330 (DTP/NCI, 2004).
Toxic doses and inconclusive results are not listed.

Test system: P388 leukemia ip, CD2F1 mice, survival T/C
Experiment: NCI In Vivo Anticancer Drug Screen. Data for tumor model P388 Leukemia (intraperitoneal) in CD2F1 (CDF1) mice
Conditions: endpoint: median survival time, higher = longer survival
Summary of the method: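 Mice carrying the transplanted tumor received test compound or vehicle. Survival was recorded in each group, and the value is the treated-group measurement divided by that of the vehicle-treated control group.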

[1] = dose: 50.0 mg/kg/injection, schedule: Q01DX009 (ip), vehicle: Klucel (hydroxypropylcellulose) (HPC)
[2] = dose: 100.0 mg/kg/injection, schedule: Q01DX009 (ip), vehicle: Klucel (hydroxypropylcellulose) (HPC)
[3] = dose: 200.0 mg/kg/injection, schedule: Q01DX009 (ip), vehicle: Klucel (hydroxypropylcellulose) (HPC)
[4] = dose: 100.0 mg/kg/injection, schedule: Q01DX001 (ip), vehicle: Klucel (hydroxypropylcellulose) (HPC)
[5] = dose: 50.0 mg/kg/injection, schedule: Q01DX005 (ip), vehicle: saline with Tween-80
[6] = dose: 100.0 mg/kg/injection, schedule: Q01DX005 (ip), vehicle: saline with Tween-80
[7] = dose: 200.0 mg/kg/injection, schedule: Q01DX005 (ip), vehicle: saline with Tween-80

CC1=C(CCCCCCCCCCCCCCC(C)O)C(=O)OC1=O (stereo not given)
T/C (dose: 1.56 mg/kg/injection, schedule: Q01DX005 (ip), vehicle: Klucel (hydroxypropylcellulose) (HPC)): 108 % of control | T/C (dose: 3.12 mg/kg/injection, schedule: Q01DX005 (ip), vehicle: Klucel (hydroxypropylcellulose) (HPC)): 108 % of control | T/C (dose: 6.25 mg/kg/injection, schedule: Q01DX005 (ip), vehicle: Klucel (hydroxypropylcellulose) (HPC)): 99 % of control | T/C (dose: 12.5 mg/kg/injection, schedule: Q01DX005 (ip), vehicle: Klucel (hydroxypropylcellulose) (HPC)): 99 % of control | T/C (dose: 50.0 mg/kg/injection, schedule: Q01DX005 (ip), vehicle: Klucel (hydroxypropylcellulose) (HPC)): 89 % of control | T/C (dose: 100.0 mg/kg/injection, schedule: Q01DX005 (ip), vehicle: Klucel (hydroxypropylcellulose) (HPC)): 92 % of control | T/C (dose: 200.0 mg/kg/injection, schedule: Q01DX005 (ip), vehicle: Klucel (hydroxypropylcellulose) (HPC)): 101 % of control | T/C (dose: 400.0 mg/kg/injection, schedule: Q01DX005 (ip), vehicle: Klucel (hydroxypropylcellulose) (HPC)): 87 % of control

CN(C)CCNc1ccc(O)c2c1C(=O)c1ccccc1C2=O
T/C (dose: 5.0 mg/kg/injection, schedule: Q01DX009 (ip), vehicle: acid diluted with saline): 104 % of control | T/C (dose: 10.0 mg/kg/injection, schedule: Q01DX009 (ip), vehicle: acid diluted with saline): 100 % of control | T/C (dose: 20.0 mg/kg/injection, schedule: Q01DX009 (ip), vehicle: acid diluted with saline): 100 % of control | T/C (dose: 20.0 mg/kg/injection, schedule: Q01DX009 (ip), vehicle: distilled water + Tween-80): 110 % of control | T/C (dose: 40.0 mg/kg/injection, schedule: Q01DX009 (ip), vehicle: acid diluted with saline): 124 % of control | T/C (dose: 40.0 mg/kg/injection, schedule: Q01DX009 (ip), vehicle: distilled water + Tween-80): 117 % of control | T/C (dose: 80.0 mg/kg/injection, schedule: Q01DX009 (ip), vehicle: acid diluted with saline): 153 % of control | T/C (dose: 160.0 mg/kg/injection, schedule: Q01DX009 (ip), vehicle: distilled water + Tween-80): 153 % of control

CCCCn1c(=S)sc2ccccc21
T/C (dose: 50.0 mg/kg/injection, schedule: Q04DX003 (ip), vehicle: saline with Tween-80): 98 % of control | T/C (dose: 100.0 mg/kg/injection, schedule: Q04DX003 (ip), vehicle: saline with Tween-80): 100 % of control | T/C (dose: 200.0 mg/kg/injection, schedule: Q04DX003 (ip), vehicle: saline with Tween-80): 104 % of control | T/C (dose: 400.0 mg/kg/injection, schedule: Q04DX003 (ip), vehicle: saline with Tween-80): 104 % of control

O=[N+]([O-])c1cccc(C=Nc2ccc(/C=C/C3(CCl)OCCO3)cc2)c1
T/C [1]: 98 % of control | T/C [2]: 97 % of control | T/C [3]: 91 % of control

COc1ccc(Cn2nnc(C(N)=O)c2Cl)cc1
T/C [4]: 99 % of control | T/C (dose: 200.0 mg/kg/injection, schedule: Q01DX001 (ip), vehicle: Klucel (hydroxypropylcellulose) (HPC)): 99 % of control | T/C (dose: 400.0 mg/kg/injection, schedule: Q01DX001 (ip), vehicle: Klucel (hydroxypropylcellulose) (HPC)): 89 % of control

CC(CCc1ccccc1)NC(C)C(O)c1ccc(O)cc1 (stereo not given)
T/C (dose: 25.0 mg/kg/injection, schedule: Q01DX009 (ip), vehicle: saline with Tween-80): 100 % of control | T/C (dose: 50.0 mg/kg/injection, schedule: Q01DX009 (ip), vehicle: saline with Tween-80): 100 % of control | T/C (dose: 100.0 mg/kg/injection, schedule: Q01DX009 (ip), vehicle: saline with Tween-80): 90 % of control

Cc1cc2nnc(-c3cccc([N+](=O)[O-])c3)n2c2nnnn12
T/C (dose: 25.0 mg/kg/injection, schedule: Q01DX005 (ip), vehicle: saline with Tween-80): 100 % of control | T/C [5]: 102 % of control | T/C [6]: 98 % of control | T/C [7]: 100 % of control

O=c1cccccc1[O][Sn]([O]c1cccccc1=O)([c]1ccccc1)[c]1ccccc1
T/C (dose: 50.0 mg/kg/injection, schedule: Q01DX001 (ip), vehicle: Klucel (hydroxypropylcellulose) (HPC)): 104 % of control | T/C [4]: 116 % of control

CCC(c1ccccc1)c1cc2c(cc1OC(C)=O)OCO2 (stereo not given)
T/C [5]: 104 % of control | T/C [6]: 107 % of control | T/C [7]: 102 % of control

CC12OC1(C)C1C(=O)OCC1C2=O (stereo not given)
T/C (dose: 25.0 mg/kg/injection, schedule: Q01DX009 (ip), vehicle: Klucel (hydroxypropylcellulose) (HPC)): 105 % of control | T/C [1]: 96 % of control | T/C [2]: 97 % of control | T/C [3]: 117 % of control

[B-][N+]1(C)CC[N+]([B-])(C)CC1 (stereo not given)
T/C (dose: 5.0 mg/kg/injection, schedule: Q01DX009 (ip), vehicle: saline with Tween-80): 90 % of control | T/C (dose: 10.0 mg/kg/injection, schedule: Q01DX009 (ip), vehicle: saline with Tween-80): 95 % of control | T/C (dose: 20.0 mg/kg/injection, schedule: Q01DX009 (ip), vehicle: saline with Tween-80): 90 % of control
